In patent publication US20200055817A1 (AbbVie Deutschland GmbH & Co. KG, priority 2016, published 2020):

What was measured:
Format in all cases: cell-based
[1] = target: T1, human EDG8 (S1PR5) receptor (Homo sapiens, UniProt Q9H228); experiment: Aequorin assay, agonist potency, CHO-A21-EDG8#12 cells; details: agonist mode, aequorin luminescence; read-out: S1P5 EC50 range #
T1 construct: carries the transgenes human EDG8 (S1PR5) receptor (Acession number NP_110387.1); expressed in transfected cells; host or cells: CHO-A21-EDG8#12 (CHO clone co-expressing mitochondrial aequorin and chimaeric Gaqi5)
Summary of the method: (§1)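 CHO cells coexpressing receptor, mitochondrial aequorin and Gαqi5 (S1P3 pool: GNA16) were loaded overnight at RT with 5 μM coelenterazine h in 0.1% fatty-acid-free BSA buffer. Cells were injected onto compound, luminescence recorded 90 s and integrated, normalised to digitonin or 20 μM ATP; sigmoidal fit.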

[2] = target: T2, human EDG1 (S1PR1) receptor (Homo sapiens, UniProt P21453); experiment: Aequorin assay, agonist potency, CHO-A21-Edg1#17 cells; details: agonist mode, aequorin luminescence; read-out: S1P1 EC50
T2 construct: expressed in transfected cells; host or cells: CHO-A21-Edg1#17 (CHO clone co-expressing mitochondrial aequorin and chimaeric Gaqi5)
Summary of the method: as §1

S1P4 = target: T3, S1P4 (Homo sapiens, UniProt O95977); experiment: Aequorin assay, agonist potency, S1P4; details: agonist mode, aequorin luminescence
T3 sequence (O95977 1-384): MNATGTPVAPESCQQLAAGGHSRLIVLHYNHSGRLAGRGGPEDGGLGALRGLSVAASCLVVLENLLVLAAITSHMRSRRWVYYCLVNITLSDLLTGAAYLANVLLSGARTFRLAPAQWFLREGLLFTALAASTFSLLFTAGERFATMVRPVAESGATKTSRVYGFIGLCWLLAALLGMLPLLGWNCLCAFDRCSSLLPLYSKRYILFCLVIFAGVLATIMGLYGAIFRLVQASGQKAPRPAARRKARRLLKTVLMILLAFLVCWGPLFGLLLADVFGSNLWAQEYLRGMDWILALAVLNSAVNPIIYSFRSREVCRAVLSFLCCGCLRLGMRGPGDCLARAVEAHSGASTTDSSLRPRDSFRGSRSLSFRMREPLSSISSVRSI
Summary of the method: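 Cells loaded overnight at RT with 5 μM coelenterazine h in DMEM/HAM's F12 with HEPES plus 0.1% fatty acid-free BSA, then injected onto compounds; agonist-induced calcium luminescence recorded for 90 s and integrated. Signal normalised to digitonin (100 μM) or ATP (20 μM) wells, S1P as reference agonist; sigmoidal nonlinear regression.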

T2 sequence (P21453 whole entry): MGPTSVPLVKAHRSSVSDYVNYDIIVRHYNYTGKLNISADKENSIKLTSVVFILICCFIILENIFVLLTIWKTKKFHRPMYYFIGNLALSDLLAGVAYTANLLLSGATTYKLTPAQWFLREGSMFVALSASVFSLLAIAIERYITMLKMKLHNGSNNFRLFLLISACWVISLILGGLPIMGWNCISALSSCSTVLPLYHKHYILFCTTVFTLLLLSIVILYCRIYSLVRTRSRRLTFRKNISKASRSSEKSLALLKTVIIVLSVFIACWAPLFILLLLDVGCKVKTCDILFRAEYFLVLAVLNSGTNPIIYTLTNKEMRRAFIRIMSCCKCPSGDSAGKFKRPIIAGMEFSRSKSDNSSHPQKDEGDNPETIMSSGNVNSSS
T1 sequence (Q9H228 whole entry): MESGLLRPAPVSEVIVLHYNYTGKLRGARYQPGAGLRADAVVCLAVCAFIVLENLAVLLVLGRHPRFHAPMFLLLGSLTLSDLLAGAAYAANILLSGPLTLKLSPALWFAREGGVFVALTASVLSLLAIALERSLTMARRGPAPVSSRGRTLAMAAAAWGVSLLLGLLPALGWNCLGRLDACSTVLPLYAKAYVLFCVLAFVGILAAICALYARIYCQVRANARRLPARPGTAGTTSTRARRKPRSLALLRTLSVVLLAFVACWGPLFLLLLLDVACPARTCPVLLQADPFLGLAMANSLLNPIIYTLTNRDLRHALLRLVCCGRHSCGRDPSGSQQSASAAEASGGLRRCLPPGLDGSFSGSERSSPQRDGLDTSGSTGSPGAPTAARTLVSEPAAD

Compound	EC50 [1]	EC50 [2]	EC50 (S1P4)
O=C(O)C1(CN2CC3(Cc4ccc(OCc5c(F)cccc5F)cc4C3)C2)CC1 [Example 37, 1-((5′-((2,6-difluorobenzyl)oxy)-1′,3′-dihydrospiro[azetidine-3,2′-inden]-1-yl)methyl)cyclopropanecarboxylic acid compound with 2,2,2-trifluoroacetic acid (1:1)]	1000 to 10000 nM	> 1000 nM	< 1000 nM
O=C(O)C1CC(N2CC3(Cc4ccc(OCc5ccc(OCC6CC6)cc5)cc4C3)C2)C1 (stereo not drawn) [Example 84, 3-(5′-((4-(cyclopropylmethoxy)benzyl)oxy)-1′,3′-dihydrospiro[azetidine-3,2′-inden]-1-yl)cyclobutanecarboxylic acid]	1000 to 10000 nM	> 1000 nM	> 1000 nM
O=C(O)CN1CC2(Cc3ccc(OCCOc4ccc(Cl)cc4)cc3C2)C1 [Example 71, 2-(5′-(2-(4-chlorophenoxy)ethoxy)-1′,3′-dihydrospiro[azetidine-3,2′-inden]-1-yl)acetic acid]	1000 to 10000 nM	> 1000 nM	> 1000 nM
Cc1cccc(CCCOc2ccc3c(c2)CC2(C3)CN(CC3(C(=O)O)CC3)C2)n1 [Example 146, 1-((5′-(3-(6-methylpyridin-2-yl)propoxy)-1′,3′-dihydrospiro[azetidine-3,2′-inden]-1-yl)methyl)cyclopropanecarboxylic acid]	1000 to 10000 nM	> 1000 nM	> 1000 nM
CCOc1ccc(C#Cc2ccc3c(c2)CC2(C3)CN(CC3(C(=O)O)CC3)C2)cc1 [Example 112, 1-((5′-((4-ethoxyphenyl)ethynyl)-1′,3′-dihydrospiro[azetidine-3,2′-inden]-1-yl)methyl)cyclopropanecarboxylic acid]	100 to 1000 nM	> 1000 nM	> 1000 nM
COc1cccc(F)c1COc1ccc2c(c1)CC1(C2)CN(CC(=O)O)C1 [Example 10, 2,2,2-trifluoroacetic acid compound with 2-(5′-((2-fluoro-6-methoxybenzyl)oxy)-1′,3′-dihydrospiro[azetidine-3,2′-inden]-1-yl)acetic acid (1:1)]	100 to 1000 nM	> 1000 nM	< 1000 nM
COc1ccc(COc2ccc3c(c2)CC2(C3)CN(C3CC(C(=O)O)C3)C2)c(C)n1 (stereo not drawn) [Example 88, 3-(5′-((6-methoxy-2-methylpyridin-3-yl)methoxy)-1′,3′-dihydrospiro[azetidine-3,2′-inden]-1-yl)cyclobutanecarboxylic acid]	1000 to 10000 nM	> 1000 nM	< 1000 nM
O=C(O)C1(CN2CC3(Cc4ccc(OCc5c(F)cccc5Cl)cc4C3)C2)CC1 [Example 34, 1-((5′-((2-chloro-6-fluorobenzyl)oxy)-1′,3′-dihydrospiro[azetidine-3,2′-inden]-1-yl)methyl)cyclopropanecarboxylic acid compound with 2,2,2-trifluoroacetic acid (1:1)]	1000 to 10000 nM	> 1000 nM	< 1000 nM
CCOc1c(F)cc(COc2ccc3c(c2)CC2(C3)CN(CC3(C(=O)O)CC3)C2)cc1F [Example 120, 1-((5′-((4-ethoxy-3,5-difluorobenzyl)oxy)-1′,3′-dihydrospiro[azetidine-3,2′-inden]-1-yl)methyl)cyclopropanecarboxylic acid]	1000 to 10000 nM	> 1000 nM	< 1000 nM
COc1ccc(COc2ccc3c(c2)CC2(C3)CN(CC3(C(=O)O)CC3)C2)cc1 [Example 139, 1-((5′-((4-methoxybenzyl)oxy)-1′,3′-dihydrospiro[azetidine-3,2′-inden]-1-yl)methyl)cyclopropanecarboxylic acid]	1000 to 10000 nM	> 1000 nM	> 1000 nM
O=C(O)C1(CN2CC3(Cc4ccc(OCCc5ccccc5F)cc4C3)C2)CC1 [Example 136, 1-((5′-(2-fluorophenethoxy)-1′,3′-dihydrospiro[azetidine-3,2′-inden]-1-yl)methyl)cyclopropanecarboxylic acid]	1000 to 10000 nM	> 1000 nM	< 1000 nM
CC(C)Oc1ccc(C#Cc2ccc3c(c2)CC2(C3)CN(CC3(C(=O)O)CC3)C2)cn1 [Example 114, 1-((5′-((6-isopropoxypyridin-3-yl)ethynyl)-1′,3′-dihydrospiro[azetidine-3,2′-inden]-1-yl)methyl)cyclopropanecarboxylic acid]	100 to 1000 nM	> 1000 nM	> 1000 nM

Second part, the compound after the results:

EC50 [1]	EC50 [2]	EC50 (S1P4)	Compound
≤ 10 nM	> 1000 nM	< 1000 nM	CCc1cccc(Cl)c1COc1ccc2c(c1)OC1(C2)CN(CC(C)CC(=O)O)C1 (stereo not drawn) [Example 157, 4-(6′-((2-chloro-6-ethylbenzyl)oxy)-3′H-spiro[azetidine-3,2′-benzofuran]-1-yl)-3-methylbutanoic acid]
≤ 10 nM	> 1000 nM	< 1000 nM	Cc1cccc(F)c1COc1ccc2c(c1)CC1(C2)CN(CC(=O)O)C1 [Example 17, 2,2,2-trifluoroacetic acid compound with 2-(5′-((2-fluoro-6-methylbenzyl)oxy)-1′,3′-dihydrospiro[azetidine-3,2′-inden]-1-yl)acetic acid (1:1)]
≤ 10 nM	< 1000 nM	< 1000 nM	CCc1cccc(Cl)c1COc1ccc2c(c1)CC1(C2)CN(C2CC(C(=O)O)C2)C1 (stereo not drawn) [Example 94, 3-(5′-((2-chloro-6-ethylbenzyl)oxy)-1′,3′-dihydrospiro[azetidine-3,2′-inden]-1-yl)cyclobutanecarboxylic acid]
100 to 1000 nM	> 1000 nM	< 1000 nM	CC1CCC(C#Cc2ccc3c(c2)OC2(C3)CN(CC(=O)O)C2)CC1 (stereo not drawn) [Example 155, 2-(6′-((4-methylcyclohexyl)ethynyl)-3′H-spiro[azetidine-3,2′-benzofuran]-1-yl)acetic acid]
≤ 10 nM	> 1000 nM	< 1000 nM	CC1CCC(C#Cc2ccc3c(c2)CC2(C3)CN(CC(=O)O)C2)CC1 (stereo not drawn) [Example 76, 2-(5′-((4-methylcyclohexyl)ethynyl)-1′,3′-dihydrospiro[azetidine-3,2′-inden]-1-yl)acetic acid]
≤ 10 nM	> 1000 nM	< 1000 nM	CCc1cccc(F)c1COc1ccc2c(c1)CC1(C2)CN(CC2(C(=O)O)CC2)C1 [Example 48, 1-((5′-((2-ethyl-6-fluorobenzyl)oxy)-1′,3′-dihydrospiro[azetidine-3,2′-inden]-1-yl)methyl)cyclopropanecarboxylic acid]
10 to 100 nM	< 1000 nM	> 1000 nM	CCOc1ccc(C#Cc2ccc3c(c2)OC2(C3)CN(CC(=O)O)C2)cc1 [Example 154, 2-(6′-((4-ethoxyphenyl)ethynyl)-3′H-spiro[azetidine-3,2′-benzofuran]-1-yl)acetic acid]
10 to 100 nM	> 1000 nM	< 1000 nM	O=C(O)[C@H]1C[C@H](N2CC3(Cc4ccc(OCc5cc(Cl)ccc5Cl)cc4C3)C2)C1 [Example 89, (1r,3r)-3-(5′-((2,5-dichlorobenzyl)oxy)-1′,3′-dihydrospiro[azetidine-3,2′-inden]-1-yl)cyclobutanecarboxylic acid]
≤ 10 nM	< 1000 nM	> 1000 nM	CC(Oc1ccc(C#Cc2ccc3c(c2)CC2(C3)CN(CC3(C(=O)O)CC3)C2)cn1)C(F)(F)F (stereo not drawn) [Example 117, 1-((5′-((6-((1,1,1-trifluoropropan-2-yl)oxy)pyridin-3-yl)ethynyl)-1′,3′-dihydrospiro[azetidine-3,2′-inden]-1-yl)methyl)cyclopropanecarboxylic acid]
≤ 10 nM	> 1000 nM	< 1000 nM	O=C(O)CN1CC2(Cc3ccc(OC4CCc5ccccc54)cc3C2)C1 (stereo not drawn) [Example 66, 2-(5′-((2,3-dihydro-1H-inden-1-yl)oxy)-1′,3′-dihydrospiro[azetidine-3,2′-inden]-1-yl)acetic acid]
10 to 100 nM	> 1000 nM	< 1000 nM	O=C(O)CN1CC2(Cc3ccc(OCc4ccccc4C(F)(F)F)cc3C2)C1 [Example 12, 2,2,2-trifluoroacetic acid compound with 2-(5′-((2-(trifluoromethyl)benzyl)oxy)-1′,3′-dihydrospiro[azetidine-3,2′-inden]-1-yl)acetic acid (1:1)]
≤ 10 nM	> 1000 nM	< 1000 nM	O=C(O)CN1CC2(Cc3ccc(OCc4cc(F)ccc4C(F)(F)F)cc3C2)C1 [Example 27, 2-(5′-((5-fluoro-2-(trifluoromethyl)benzyl)oxy)-1′,3′-dihydrospiro[azetidine-3,2′-inden]-1-yl)acetic acid]
